Measured values published in US8580747B2, “Cyclic natriuretic peptide constructs” (Palatin Technologies, Inc., priority 2006, dated 2013).
Like-named read-outs stand apart in the source and are kept apart here. Bridge positions count the residues as written; N and C are the ends. Square brackets hold non-standard residues; d marks the D form. Peptide text beside a SMILES is read from it. * marks the point of attachment. Piperazin2one(3S-Bu,6R-CO) = CCCC[C@@H]1NC[C@H](C(=O)*)NC1=O; X1 = N=C(N)NCCC[C@H]1C(=O)N[C@@H](C(N)=O)CN1*; X3 = CC(C)C[C@@H]1NC[C@H](C(=O)*)NC1=O; dNle = CCCC[C@@H](N)C(=O)O; Nle = CCCC[C@H](N)C(=O)O; Orn = NCCC[C@H](N)C(=O)O

Legend:
[1] = rat, in vivo, iv
[2] = molecular target: T1, NEP (neutral endopeptidase) (Homo sapiens, UniProt P08473); test: hNEP resistance assay (digestion by neutral endopeptidase); assay type: in vitro ADME; conditions: pH 7.4
T1 construct: purchased R&D Systems, Minneapolis, Minn; 1182-ZN
Method: NEP resistance of various constructs of the invention was evaluated using the following experimental procedure. All constructs were diluted in 0.1 M Tris-HCL buffer (pH 7.4) to 100 μM. 40 μL of diluted constructs were added to each tube and all tubes were kept on ice. 40 μL of diluted NEP, either human recombinant NEP (R&D Systems, Minneapolis, Minn., catalogue #1182-ZN) at 8 ng/μL or mouse NEP (R&D Systems, catalog #1126-ZN) at 2.5 ng/μL, was added to each tube. The tubes were mixed gently and spun. […] At the end of the incubation time, the reaction was stopped by adding 5 μL of 10% TFA. […] The extent to which NEP was active against the constructs was then analyzed by HPLC and/or LC/MS. Data analysis included determining the percent of remaining starting material, i.e., undigested peptide construct, and the percent and sequence of each proteolytic fragment.

[3] = human, isolated enzyme neprilysin
[4] = human recombinant NEP (neutral endopeptidase), incubation with human recombinant NEP at 37° C., 1 h, read-out: hNEP % of Starting Material 1 h
[5] = human recombinant NEP (neutral endopeptidase), incubation with human recombinant NEP at 37° C., 2 h, read-out: hNEP % of Starting Material 2 h

T1 sequence (P08473 52-750 limits assumed): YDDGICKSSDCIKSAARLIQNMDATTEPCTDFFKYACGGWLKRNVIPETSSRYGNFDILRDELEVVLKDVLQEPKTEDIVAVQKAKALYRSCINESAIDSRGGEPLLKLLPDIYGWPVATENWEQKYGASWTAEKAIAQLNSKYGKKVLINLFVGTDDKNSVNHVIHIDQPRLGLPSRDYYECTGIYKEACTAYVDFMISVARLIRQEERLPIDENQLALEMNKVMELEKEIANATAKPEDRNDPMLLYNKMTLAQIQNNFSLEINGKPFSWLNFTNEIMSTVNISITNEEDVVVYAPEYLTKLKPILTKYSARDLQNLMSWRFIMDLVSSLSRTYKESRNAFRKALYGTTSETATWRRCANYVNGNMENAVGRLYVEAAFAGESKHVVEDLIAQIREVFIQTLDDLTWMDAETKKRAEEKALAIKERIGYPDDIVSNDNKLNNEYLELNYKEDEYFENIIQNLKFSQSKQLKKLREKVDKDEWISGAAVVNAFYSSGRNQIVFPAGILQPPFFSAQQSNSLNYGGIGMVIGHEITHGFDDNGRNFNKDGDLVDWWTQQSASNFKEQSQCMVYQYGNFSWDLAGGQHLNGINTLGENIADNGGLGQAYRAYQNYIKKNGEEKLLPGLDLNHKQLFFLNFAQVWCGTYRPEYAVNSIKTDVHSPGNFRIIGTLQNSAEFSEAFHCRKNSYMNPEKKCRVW

CCCC[C@@H]1NC[C@H](C(=O)N[C@H]2CSSC[C@@H](C(=O)N[C@@H](Cc3ccc(O)cc3)C(=O)N3C[C@H](C(N)=O)NC(=O)[C@@H]3CCCNC(=N)N)NC(=O)[C@H](CO)NC(=O)[C@H]([C@@H](C)CC)NC(=O)[C@H](CCCNC(=N)N)NC(=O)[C@H](CC(=O)O)NC(=O)[C@H](CCCC)NC(=O)[C@H](CCCNC(=N)N)NC(=O)CNC(=O)CNC(=O)[C@H](Cc3ccccc3)NC(=O)[C@@H](Cc3c[nH]cn3)NC2=O)NC1=O [1-28] ({Piperazin2one(3S-Bu,6R-CO)}-C[dH]FGGR[Nle]DRISCY-X1; disulfide 1-12)
AUC ([1]; 2 mg/kg): 0.351 µM·h | Vd ([1]; 2 mg/kg): 1.1 L/kg | clearance ([1]; 2 mg/kg): 51 mL/min/kg | half-life ([1]; 2 mg/kg): 24 min

CCCC[C@@H]1NC[C@H](C(=O)N[C@H]2CSSC[C@@H](C(=O)N[C@@H](Cc3ccc(O)cc3)C(=O)N3C[C@H](C(N)=O)NC(=O)[C@@H]3CCCNC(=N)N)NC(=O)[C@H](CO)NC(=O)[C@H]([C@@H](C)CC)NC(=O)[C@H](CCCNC(=N)N)NC(=O)[C@H](C)NC(=O)[C@H](CCCC)NC(=O)[C@H](CCCNC(=N)N)NC(=O)CNC(=O)CNC(=O)[C@H](Cc3ccccc3)NC(=O)[C@H](Cc3c[nH]cn3)NC2=O)NC1=O [1-35]
AUC ([1]; 2 mg/kg): 0.01 µM·h | Vd ([1]; 2 mg/kg): 57 L/kg | clearance ([1]; 2 mg/kg): 1860 mL/min/kg | half-life ([1]; 2 mg/kg): 24 min

CCCC[C@@H]1NC[C@H](C(=O)N[C@H]2CSSC[C@@H](C(=O)N[C@@H](Cc3ccc(O)cc3)C(=O)N3C[C@H](C(N)=O)NC(=O)[C@@H]3CCCNC(=N)N)NC(=O)[C@H](CO)NC(=O)[C@H]([C@@H](C)CC)NC(=O)[C@H](CCCNC(=N)N)NC(=O)[C@H](CC(=O)O)NC(=O)[C@H](CCCC)NC(=O)[C@H](CCCNC(=N)N)NC(=O)CNC(=O)CNC(=O)[C@@H](Cc3ccccc3)NC(=O)[C@H](Cc3c[nH]cn3)NC2=O)NC1=O [1-39] ({Piperazin2one(3S-Bu,6R-CO)}-CH[dF]GGR[Nle]DRISCY-X1; disulfide 1-12)
AUC ([1]; 2 mg/kg): 0.142 µM·h | Vd ([1]; 2 mg/kg): 2.8 L/kg | clearance ([1]; 2 mg/kg): 134 mL/min/kg | half-life ([1]; 2 mg/kg): 18 min

CCCC[C@@H]1NC[C@H](C(=O)N[C@H]2CSSC[C@@H](C(=O)N[C@@H](Cc3ccc(O)cc3)C(=O)N3C[C@H](C(N)=O)NC(=O)[C@@H]3CCCNC(=N)N)NC(=O)[C@H](CO)NC(=O)[C@H]([C@@H](C)CC)NC(=O)[C@H](CCCNC(=N)N)NC(=O)[C@H](CC(=O)O)NC(=O)[C@H](CCCC)NC(=O)[C@@H](CCCNC(=N)N)NC(=O)CNC(=O)CNC(=O)[C@H](Cc3ccccc3)NC(=O)[C@H](Cc3c[nH]cn3)NC2=O)NC1=O [1-42] ({Piperazin2one(3S-Bu,6R-CO)}-CHFGG[dR][Nle]DRISCY-X1; disulfide 1-12)
AUC ([1]; 2 mg/kg): 0.369 µM·h | Vd ([1]; 2 mg/kg): 0.7 L/kg | clearance ([1]; 2 mg/kg): 50 mL/min/kg | half-life ([1]; 2 mg/kg): 18 min

CCCC[C@@H]1NC[C@H](C(=O)N[C@H]2CSSC[C@@H](C(=O)N[C@@H](Cc3ccc(O)cc3)C(=O)N3C[C@H](C(N)=O)NC(=O)[C@@H]3CCCNC(=N)N)NC(=O)[C@H](CO)NC(=O)[C@H]([C@@H](C)CC)NC(=O)[C@H](CCCNC(=N)N)NC(=O)[C@H](CC(=O)O)NC(=O)[C@@H](CCCC)NC(=O)[C@H](CCCNC(=N)N)NC(=O)CNC(=O)CNC(=O)[C@H](Cc3ccccc3)NC(=O)[C@H](Cc3c[nH]cn3)NC2=O)NC1=O [1-43] ({Piperazin2one(3S-Bu,6R-CO)}-CHFGGR[dNle]DRISCY-X1; disulfide 1-12)
clearance [1]: 14 mL/min/kg | AUC ([1]; 2 mg/kg): 1.25 µM·h | Vd ([1]; 2 mg/kg): 0.6 L/kg | clearance ([1]; 2 mg/kg): 14 mL/min/kg | half-life ([1]; 2 mg/kg): 42 min | remaining at 1 h, 50 µM [2, 3]: 97% | remaining at 2 h, 50 µM [2, 3]: 92%

CCCC[C@@H]1NC[C@H](C(=O)N[C@H]2CSSC[C@@H](C(=O)N[C@@H](Cc3ccc(O)cc3)C(=O)N3C[C@H](C(N)=O)NC(=O)[C@@H]3CCCNC(=N)N)NC(=O)[C@H](CO)NC(=O)[C@H]([C@@H](C)CC)NC(=O)[C@H](CCCNC(=N)N)NC(=O)[C@@H](CC(=O)O)NC(=O)[C@H](CCCC)NC(=O)[C@H](CCCNC(=N)N)NC(=O)CNC(=O)CNC(=O)[C@H](Cc3ccccc3)NC(=O)[C@H](Cc3c[nH]cn3)NC2=O)NC1=O [1-44] ({Piperazin2one(3S-Bu,6R-CO)}-CHFGGR[Nle][dD]RISCY-X1; disulfide 1-12)
clearance [1]: 15 mL/min/kg | AUC ([1]; 2 mg/kg): 1.54 µM·h | Vd ([1]; 2 mg/kg): 0.4 L/kg | clearance ([1]; 2 mg/kg): 15 mL/min/kg | half-life ([1]; 2 mg/kg): 30 min | remaining at 1 h, 50 µM [2, 3]: 93% | remaining at 2 h, 50 µM [2, 3]: 86%

CCCC[C@@H]1NC[C@H](C(=O)N[C@H]2CSSC[C@@H](C(=O)N[C@@H](Cc3ccc(O)cc3)C(=O)N3C[C@H](C(N)=O)NC(=O)[C@@H]3CCCNC(=N)N)NC(=O)[C@H](CO)NC(=O)[C@H]([C@@H](C)CC)NC(=O)[C@@H](CCCNC(=N)N)NC(=O)[C@H](CC(=O)O)NC(=O)[C@H](CCCC)NC(=O)[C@H](CCCNC(=N)N)NC(=O)CNC(=O)CNC(=O)[C@H](Cc3ccccc3)NC(=O)[C@H](Cc3c[nH]cn3)NC2=O)NC1=O [1-45] ({Piperazin2one(3S-Bu,6R-CO)}-CHFGGR[Nle]D[dR]ISCY-X1; disulfide 1-12)
AUC ([1]; 2 mg/kg): 0.85 µM·h | Vd ([1]; 2 mg/kg): 0.3 L/kg | clearance ([1]; 2 mg/kg): 23 mL/min/kg | half-life ([1]; 2 mg/kg): 18 min

CCCC[C@@H]1NC(=O)[C@H](CCCNC(=N)N)NC(=O)CNC(=O)CNC(=O)[C@H](Cc2ccccc2)NC(=O)[C@H](Cc2c[nH]cn2)NC(=O)[C@@H](NC(=O)[C@H]2CN[C@@H](CC(C)C)C(=O)N2)CSSC[C@@H](C(=O)N[C@@H](Cc2ccc(O)cc2)C(=O)N2C[C@H](C(N)=O)NC(=O)[C@@H]2CCCNC(=N)N)NC(=O)[C@H](CO)NC(=O)[C@H]([C@@H](C)CC)NC(=O)[C@H](CCCNC(=N)N)NC(=O)[C@H](CC(=O)O)NC1=O [1-51] (X3-CHFGGR[Nle]DRISCY-X1; disulfide 1-12)
AUC ([1]; 2 mg/kg): 0.19 µM·h | Vd ([1]; 2 mg/kg): 1 L/kg | clearance ([1]; 2 mg/kg): 94 mL/min/kg | half-life ([1]; 2 mg/kg): 12 min

CCCC[C@@H]1NC[C@H](C(=O)N[C@H]2CSSC[C@@H](C(=O)N[C@H](Cc3ccc(O)cc3)C(=O)N3C[C@H](C(N)=O)NC(=O)[C@@H]3CCCNC(=N)N)NC(=O)[C@H](CO)NC(=O)[C@H]([C@@H](C)CC)NC(=O)[C@H](CCCNC(=N)N)NC(=O)[C@H](CC(=O)O)NC(=O)[C@H](CCCC)NC(=O)[C@H](CCCNC(=N)N)NC(=O)CNC(=O)CNC(=O)[C@H](Cc3ccccc3)NC(=O)[C@H](Cc3c[nH]cn3)NC2=O)NC1=O [1-53] ({Piperazin2one(3S-Bu,6R-CO)}-CHFGGR[Nle]DRISC[dY]-X1; disulfide 1-12)
clearance [1]: 40 mL/min/kg | remaining at 1 h, 50 µM [2, 3]: 87% | remaining at 2 h, 50 µM [2, 3]: 78%

CCCC[C@@H]1NC[C@H](C(=O)N[C@H]2CSSC[C@@H](C(=O)N[C@@H](Cc3ccc(O)cc3)C(=O)N3C[C@H](C(N)=O)NC(=O)[C@@H]3CCCNC(=N)N)NC(=O)[C@H](CO)NC(=O)[C@H]([C@@H](C)CC)NC(=O)[C@H](CCCNC(=N)N)NC(=O)[C@H](CC(=O)O)NC(=O)[C@H](CCCC)NC(=O)[C@H](CCCN)NC(=O)CNC(=O)CNC(=O)[C@H](Cc3ccccc3)NC(=O)[C@H](Cc3c[nH]cn3)NC2=O)NC1=O [1-54] ({Piperazin2one(3S-Bu,6R-CO)}-CHFGG[Orn][Nle]DRISCY-X1; disulfide 1-12)
clearance [1]: 66 mL/min/kg | AUC ([1]; 2 mg/kg): 0.277 µM·h | Vd ([1]; 2 mg/kg): 1 L/kg | clearance ([1]; 2 mg/kg): 66 mL/min/kg | half-life ([1]; 2 mg/kg): 12 min | remaining at 1 h, 50 µM [2, 4]: 85% | remaining at 2 h, 50 µM [2, 5]: 82%

CCCC[C@@H]1NC[C@H](C(=O)N[C@H]2CSSC[C@@H](C(=O)N[C@@H](Cc3ccc(O)cc3)C(=O)N3C[C@H](C(N)=O)NC(=O)[C@@H]3CCCNC(=N)N)NC(=O)[C@H](CO)NC(=O)[C@H]([C@@H](C)CC)NC(=O)[C@H](CCCNC(=N)N)NC(=O)[C@H](CC(=O)O)NC(=O)[C@H](CCCC)NC(=O)[C@H](CCCNC(=N)N)NC(=O)CNC(=O)[C@@H](C)NC(=O)[C@H](Cc3ccccc3)NC(=O)[C@H](Cc3c[nH]cn3)NC2=O)NC1=O [1-68]
AUC ([1]; 2 mg/kg): 0.478 µM·h | Vd ([1]; 2 mg/kg): 0.5 L/kg | clearance ([1]; 2 mg/kg): 40 mL/min/kg | half-life ([1]; 2 mg/kg): 18 min

CCCC[C@@H]1NC[C@H](C(=O)N[C@H]2CSSC[C@@H](C(=O)N[C@@H](Cc3ccc(O)cc3)C(=O)N3C[C@H](C(N)=O)NC(=O)[C@@H]3CCCNC(=N)N)NC(=O)[C@H](C)NC(=O)[C@H]([C@@H](C)CC)NC(=O)[C@H](CCCNC(=N)N)NC(=O)[C@H](CC(=O)O)NC(=O)[C@H](CCCC)NC(=O)[C@H](CCCNC(=N)N)NC(=O)CNC(=O)CNC(=O)[C@H](Cc3ccccc3)NC(=O)[C@H](C)NC2=O)NC1=O [1-69] ({Piperazin2one(3S-Bu,6R-CO)}-CAFGGR[Nle]DRIACY-X1; disulfide 1-12)
AUC ([1]; 2 mg/kg): 0.113 µM·h | Vd ([1]; 2 mg/kg): 0.8 L/kg | clearance ([1]; 2 mg/kg): 168 mL/min/kg | half-life ([1]; 2 mg/kg): 6 min

CCCC[C@@H]1NC[C@H](C(=O)N[C@H]2CSSC[C@@H](C(=O)N[C@@H](Cc3ccc(O)cc3)C(=O)N3C[C@H](C(N)=O)NC(=O)[C@@H]3CCCNC(=N)N)NC(=O)[C@H](CO)NC(=O)[C@H]([C@@H](C)CC)NC(=O)[C@H](C)NC(=O)[C@H](CC(=O)O)NC(=O)[C@H](CCCC)NC(=O)[C@H](C)NC(=O)CNC(=O)CNC(=O)[C@H](Cc3ccccc3)NC(=O)[C@H](Cc3c[nH]cn3)NC2=O)NC1=O [1-100] ({Piperazin2one(3S-Bu,6R-CO)}-CHFGGA[Nle]DAISCY-X1; disulfide 1-12)
clearance [1]: 456 mL/min/kg | AUC ([1]; 2 mg/kg): 0.042 µM·h | Vd ([1]; 2 mg/kg): 0.8 L/kg | clearance ([1]; 2 mg/kg): 456 mL/min/kg | half-life ([1]; 2 mg/kg): 6 min | remaining at 1 h, 50 µM [2, 4]: 6% | remaining at 2 h, 50 µM [2, 5]: 0%
